Data: the supplement of paper PMC11628255, “Interference of metal ions on the bioluminescent signal of firefly, Renilla, and NanoLuc luciferases in high-throughput screening assays” (Frontiers in Chemistry, 2024)
± gives the standard deviation of the averaged measurements.

Experiments:
Experiment in all cases: normalised percent inhibition of luminescence (vs positive and negative controls); higher = stronger inhibition
[1] = test system: NanoLuc luciferase (NLuc)
Procedure: (§1)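 Concentration-response (>=11 concentrations) of metal salts on purified FLuc, NLuc or RLuc luminescence in screening (SC) or 100 mM HEPES (H) buffer; salt pre-incubated with enzyme 10 min at RT, read 10 min after substrate. Normalised percent inhibition vs plate positive (PTC-124, isradipine, BTS) and DMSO negative controls; triplicate wells.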

[2] = test system: Renilla luciferase (RLuc)
Procedure: as §1

[3] = test system: firefly luciferase (FLuc)
Procedure: as §1

O=[N+]([O-])[O-].O=[N+]([O-])[O-].[Cd+2] [cadmium nitrate]
normalised percent inhibition [%]
Conditions	[1]	[2]	[3]
metal salt concentration 0.0001 mM, 100 mM HEPES buffer	-0.809 ± 1.5	-40.7 ± 15	-14 ± 17
metal salt concentration 0.00025 mM, 100 mM HEPES buffer	-0.623 ± 3.6	-15.8 ± 19	-6.16 ± 21
metal salt concentration 0.0005 mM, 100 mM HEPES buffer	-3.63 ± 3.5	-51.3 ± 24	6.48 ± 9.1
metal salt concentration 0.001 mM, 100 mM HEPES buffer	-0.485 ± 1.9	-29.6 ± 6	33.8 ± 4.1
metal salt concentration 0.002 mM, screening conditions buffer	4.83 ± 4.2	-8.95 ± 8.6	–
metal salt concentration 0.005 mM, screening conditions buffer	6.73 ± 6	-5.21 ± 8.8	–
metal salt concentration 0.01 mM, screening conditions buffer	0.612 ± 1.6	-13.5 ± 18	–
metal salt concentration 0.02 mM, screening conditions buffer	-0.781 ± 5.1	-3.71 ± 6.7	–
metal salt concentration 0.025 mM, 100 mM HEPES buffer	-1.09 ± 2.9	-16 ± 26	95.9 ± 3.9
metal salt concentration 0.05 mM, 100 mM HEPES buffer	4.79 ± 3.8	-20.9 ± 10	99.08 ± 0.82
metal salt concentration 0.05 mM, screening conditions buffer	17.7 ± 10	-1.96 ± 5.9	–
metal salt concentration 0.1 mM, 100 mM HEPES buffer	13 ± 6.7	18 ± 7.5	99.41 ± 0.19
metal salt concentration 0.1 mM, screening conditions buffer	7.22 ± 2.6	-1.09 ± 6.9	–
metal salt concentration 0.2 mM, screening conditions buffer	20.6 ± 6.8	-5.06 ± 7.3	–
metal salt concentration 0.5 mM, 100 mM HEPES buffer	18.6 ± 2.3	47.1 ± 20	100.3 ± 0.68
metal salt concentration 0.5 mM, screening conditions buffer	30.7 ± 4.9	39.6 ± 6.7	–
metal salt concentration 1 mM, 100 mM HEPES buffer	24.8 ± 3	95.1 ± 2.6	100.3 ± 0.49
metal salt concentration 1 mM, screening conditions buffer	56.2 ± 9.1	68.6 ± 12	–
metal salt concentration 2.5 mM, 100 mM HEPES buffer	20.6 ± 2.7	104 ± 1.3	100.3 ± 0.68
metal salt concentration 2.5 mM, screening conditions buffer	93.1 ± 3	79.4 ± 4.4	–
metal salt concentration 5 mM, 100 mM HEPES buffer	26.5 ± 5.5	105 ± 2.7	99.3 ± 0.68
metal salt concentration 5 mM, screening conditions buffer	113 ± 4.1	93.4 ± 2.4	–

[Cl][Fe]([Cl])[Cl] [iron(III) chloride]
normalised percent inhibition [%]
Conditions	[1]	[2]	[3]
metal salt concentration 0.0001 mM, 100 mM HEPES buffer	-1.25 ± 4.4	-21.7 ± 4.9	-26 ± 15
metal salt concentration 0.00025 mM, 100 mM HEPES buffer	-4.27 ± 8.5	-24.6 ± 22	-29.2 ± 20
metal salt concentration 0.0005 mM, 100 mM HEPES buffer	-1.65 ± 4.2	-24.2 ± 25	-34.9 ± 20
metal salt concentration 0.001 mM, 100 mM HEPES buffer	-0.138 ± 3.3	-15.5 ± 20	-41.7 ± 17
metal salt concentration 0.002 mM, screening conditions buffer	0.19 ± 3.9	0.819 ± 2.5	14.7 ± 1.8
metal salt concentration 0.005 mM, screening conditions buffer	4.14 ± 6.8	-4.9 ± 5	55.7 ± 4.7
metal salt concentration 0.01 mM, screening conditions buffer	8.93 ± 3	-11.6 ± 8.6	85.4 ± 3.2
metal salt concentration 0.02 mM, screening conditions buffer	14.5 ± 4.1	0.263 ± 14	95.8 ± 6.3
metal salt concentration 0.025 mM, 100 mM HEPES buffer	5.06 ± 5.1	-1.73 ± 19	99.41 ± 0.94
metal salt concentration 0.05 mM, 100 mM HEPES buffer	15 ± 1.8	36.7 ± 12	99.62 ± 0.49
metal salt concentration 0.05 mM, screening conditions buffer	-3.71 ± 1.9	-5.21 ± 2	82.4 ± 4.2
metal salt concentration 0.1 mM, 100 mM HEPES buffer	35.6 ± 2.7	61.1 ± 4.2	100.6 ± 0.19
metal salt concentration 0.1 mM, screening conditions buffer	28.5 ± 5.2	23.9 ± 8.6	71.9 ± 8.1
metal salt concentration 0.2 mM, screening conditions buffer	31.9 ± 1.6	32.6 ± 8.1	95.4 ± 4.9
metal salt concentration 0.5 mM, 100 mM HEPES buffer	99.75 ± 0.79	103 ± 1.9	100.3 ± 0.49
metal salt concentration 0.5 mM, screening conditions buffer	52.9 ± 0.99	48.5 ± 1.6	100.2 ± 0.3
metal salt concentration 1 mM, 100 mM HEPES buffer	101.4 ± 0.23	103 ± 2.3	99.6 ± 1.3
metal salt concentration 1 mM, screening conditions buffer	89.6 ± 7.1	75.5 ± 7.8	100.6 ± 0.43
metal salt concentration 2.5 mM, 100 mM HEPES buffer	101.8 ± 0.23	105.7 ± 0.74	100.2 ± 0.32
metal salt concentration 2.5 mM, screening conditions buffer	137.4 ± 0.29	94.4 ± 4.9	100.6 ± 0.38
metal salt concentration 5 mM, 100 mM HEPES buffer	102.12 ± 0.051	106.2 ± 0.43	99.84 ± 0.32
metal salt concentration 5 mM, screening conditions buffer	137.49 ± 0.063	105 ± 1.1	100.5 ± 0.3

[Cl][Fe][Cl] [iron(II) chloride]
normalised percent inhibition [%]
Conditions	[1]	[2]	[3]
metal salt concentration 0.0001 mM, 100 mM HEPES buffer	-0.558 ± 2.3	-50 ± 17	-43.3 ± 4.8
metal salt concentration 0.00025 mM, 100 mM HEPES buffer	-2.01 ± 4.6	-20.5 ± 28	-33.6 ± 25
metal salt concentration 0.0005 mM, 100 mM HEPES buffer	-2.14 ± 1.8	-32.5 ± 6.8	-33.5 ± 6.4
metal salt concentration 0.001 mM, 100 mM HEPES buffer	-0.324 ± 3.7	-19.3 ± 6.2	-45.9 ± 26
metal salt concentration 0.002 mM, screening conditions buffer	-2.42 ± 2.8	-4.21 ± 7.8	-3.52 ± 20
metal salt concentration 0.005 mM, screening conditions buffer	1.43 ± 8.8	1.72 ± 8.3	1.02 ± 24
metal salt concentration 0.01 mM, screening conditions buffer	5.7 ± 1.8	-1.72 ± 4.7	2 ± 14
metal salt concentration 0.02 mM, screening conditions buffer	-0.122 ± 6.1	16.1 ± 9.5	1.67 ± 19
metal salt concentration 0.025 mM, 100 mM HEPES buffer	3.65 ± 3.3	16.3 ± 3.9	53.6 ± 2.7
metal salt concentration 0.05 mM, 100 mM HEPES buffer	5.35 ± 0.67	43.1 ± 16	99.99 ± 0.87
metal salt concentration 0.05 mM, screening conditions buffer	-5.75 ± 4.8	-2.31 ± 8.4	3.62 ± 24
metal salt concentration 0.1 mM, 100 mM HEPES buffer	17.2 ± 3.2	86.8 ± 4.5	100.4 ± 0.27
metal salt concentration 0.1 mM, screening conditions buffer	22.5 ± 7	54.2 ± 5.8	14.5 ± 11
metal salt concentration 0.2 mM, screening conditions buffer	40.4 ± 7.6	71.6 ± 2.6	22.9 ± 12
metal salt concentration 0.5 mM, 100 mM HEPES buffer	61.9 ± 9.7	105 ± 3.9	99.99 ± 0.63
metal salt concentration 0.5 mM, screening conditions buffer	64 ± 7.3	84.8 ± 5.6	98 ± 4.6
metal salt concentration 1 mM, 100 mM HEPES buffer	85.4 ± 2.2	103 ± 2.6	100.5 ± 0.31
metal salt concentration 1 mM, screening conditions buffer	96 ± 10	93.3 ± 3.1	100.7 ± 0.28
metal salt concentration 2.5 mM, 100 mM HEPES buffer	99.74 ± 0.49	108.1 ± 0.56	100.2 ± 0.56
metal salt concentration 2.5 mM, screening conditions buffer	151 ± 3.3	105 ± 2	99.42 ± 0.97
metal salt concentration 5 mM, 100 mM HEPES buffer	101.7 ± 0.26	108 ± 1.1	100.3 ± 0.41
metal salt concentration 5 mM, screening conditions buffer	160.2 ± 0.5	106 ± 0.51	100.9 ± 0.84

O.O.O.O.O.O.O.O=S(=O)([O-])[O-].[Mg+2] [magnesium sulfate]
normalised percent inhibition [%], 100 mM HEPES buffer
Conditions	[1]	[2]	[3]
metal salt concentration 0.0001 mM	6.62 ± 5.2	-6.9 ± 26	-19.2 ± 9.8
metal salt concentration 0.00025 mM	1.39 ± 2.5	-4.68 ± 19	-27.4 ± 15
metal salt concentration 0.0005 mM	-0.0243 ± 2.5	-11.6 ± 9.2	-11 ± 16
metal salt concentration 0.001 mM	-0.202 ± 2.1	-17 ± 8.5	-24 ± 12
metal salt concentration 0.025 mM	-2.3 ± 2.2	-30.1 ± 5	-31.5 ± 17
metal salt concentration 0.05 mM	0.502 ± 4.4	-11.6 ± 8.6	-6.49 ± 17
metal salt concentration 0.1 mM	1.8 ± 6	-22.7 ± 9.3	-20 ± 13
metal salt concentration 0.5 mM	1.22 ± 2	-0.986 ± 12	-19.2 ± 16
metal salt concentration 1 mM	-4.91 ± 2.9	-23.4 ± 23	-17.2 ± 16
metal salt concentration 2.5 mM	-6.56 ± 2.5	-40.4 ± 7.5	-12.5 ± 12
metal salt concentration 5 mM	-5.03 ± 1.5	-22.4 ± 16	4.85 ± 15
